Data: ChEMBL document CHEMBL2163268, “Structure-based design of a novel series of potent, selective inhibitors of the class I phosphatidylinositol 3-kinases” (J Med Chem, 2012)

Assays:
[1] = in vitro; settings: rat, liver microsomes
Description: Intrinsic clearance in rat liver microsomes

[2] = target: T1, Phosphatidylinositol 4,5-bisphosphate 3-kinase catalytic subunit delta isoform (Homo sapiens, UniProt O00329); experiment: biochemical
T1 sequence (O00329 whole entry): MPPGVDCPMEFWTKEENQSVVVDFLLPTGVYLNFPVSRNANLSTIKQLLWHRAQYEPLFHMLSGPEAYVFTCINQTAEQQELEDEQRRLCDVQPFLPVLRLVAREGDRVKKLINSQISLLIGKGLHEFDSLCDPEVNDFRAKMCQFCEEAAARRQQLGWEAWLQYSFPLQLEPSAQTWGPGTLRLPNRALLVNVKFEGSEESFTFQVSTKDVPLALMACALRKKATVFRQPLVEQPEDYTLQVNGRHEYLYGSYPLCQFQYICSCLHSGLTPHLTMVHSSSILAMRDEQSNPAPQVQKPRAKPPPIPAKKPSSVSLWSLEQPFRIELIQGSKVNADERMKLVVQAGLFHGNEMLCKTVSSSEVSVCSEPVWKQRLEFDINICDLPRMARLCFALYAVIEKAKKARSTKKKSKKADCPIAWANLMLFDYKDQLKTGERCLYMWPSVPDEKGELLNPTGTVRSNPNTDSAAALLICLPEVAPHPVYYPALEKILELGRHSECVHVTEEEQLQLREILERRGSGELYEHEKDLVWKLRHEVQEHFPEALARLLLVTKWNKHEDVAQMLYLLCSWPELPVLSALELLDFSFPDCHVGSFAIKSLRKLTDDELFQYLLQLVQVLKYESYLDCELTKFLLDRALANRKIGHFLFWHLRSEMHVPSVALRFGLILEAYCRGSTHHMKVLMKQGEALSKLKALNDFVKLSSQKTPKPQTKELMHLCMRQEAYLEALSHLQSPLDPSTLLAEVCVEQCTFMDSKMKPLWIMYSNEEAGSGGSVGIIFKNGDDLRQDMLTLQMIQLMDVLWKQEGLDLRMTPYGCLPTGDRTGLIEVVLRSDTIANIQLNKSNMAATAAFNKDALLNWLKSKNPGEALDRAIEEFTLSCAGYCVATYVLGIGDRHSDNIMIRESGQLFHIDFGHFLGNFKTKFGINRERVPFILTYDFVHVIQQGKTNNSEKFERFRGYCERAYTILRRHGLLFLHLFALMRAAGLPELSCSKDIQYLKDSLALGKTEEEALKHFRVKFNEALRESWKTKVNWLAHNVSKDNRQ
Description: Inhibition of human N-terminal poly-His tagged-PI3Kdelta expressed in Sf9 baculovirus system co-expressing p85alpha after 20 mins by AlphaScreen assay

[3] = target: Phosphatidylinositol 4,5-bisphosphate 3-kinase catalytic subunit gamma isoform (Homo sapiens, UniProt P48736); experiment: biochemical
Description: Inhibition of human N-terminal poly-His tagged-PI3Kgamma expressed in Sf9 baculovirus system co-expressing p85alpha after 20 mins by AlphaScreen assay

[4] = target: Phosphatidylinositol 4,5-bisphosphate 3-kinase catalytic subunit beta isoform (Homo sapiens, UniProt P42338); experiment: biochemical
Description: Inhibition of human N-terminal poly-His tagged-PI3Kbeta expressed in Sf9 baculovirus system co-expressing p85alpha after 20 mins by AlphaScreen assay

[5] = target: Phosphatidylinositol 4,5-bisphosphate 3-kinase catalytic subunit alpha isoform (Homo sapiens, UniProt P42336); experiment: biochemical
Description: Inhibition of human N-terminal poly-His tagged-PI3Kalpha expressed in Sf9 baculovirus system co-expressing p85alpha after 20 mins by AlphaScreen assay

[6] = target: Serine/threonine-protein kinase mTOR (Homo sapiens, UniProt P42345)
Description: Inhibition of recombinant GST-tagged mTOR-mediated 4EBP1 phosphorylation after 90 mins by FRET assay

Phosphatidylinositol 4,5-bisphosphate 3-kinase catalytic subunit beta isoform, sequence (P42338 whole entry, canonical isoform): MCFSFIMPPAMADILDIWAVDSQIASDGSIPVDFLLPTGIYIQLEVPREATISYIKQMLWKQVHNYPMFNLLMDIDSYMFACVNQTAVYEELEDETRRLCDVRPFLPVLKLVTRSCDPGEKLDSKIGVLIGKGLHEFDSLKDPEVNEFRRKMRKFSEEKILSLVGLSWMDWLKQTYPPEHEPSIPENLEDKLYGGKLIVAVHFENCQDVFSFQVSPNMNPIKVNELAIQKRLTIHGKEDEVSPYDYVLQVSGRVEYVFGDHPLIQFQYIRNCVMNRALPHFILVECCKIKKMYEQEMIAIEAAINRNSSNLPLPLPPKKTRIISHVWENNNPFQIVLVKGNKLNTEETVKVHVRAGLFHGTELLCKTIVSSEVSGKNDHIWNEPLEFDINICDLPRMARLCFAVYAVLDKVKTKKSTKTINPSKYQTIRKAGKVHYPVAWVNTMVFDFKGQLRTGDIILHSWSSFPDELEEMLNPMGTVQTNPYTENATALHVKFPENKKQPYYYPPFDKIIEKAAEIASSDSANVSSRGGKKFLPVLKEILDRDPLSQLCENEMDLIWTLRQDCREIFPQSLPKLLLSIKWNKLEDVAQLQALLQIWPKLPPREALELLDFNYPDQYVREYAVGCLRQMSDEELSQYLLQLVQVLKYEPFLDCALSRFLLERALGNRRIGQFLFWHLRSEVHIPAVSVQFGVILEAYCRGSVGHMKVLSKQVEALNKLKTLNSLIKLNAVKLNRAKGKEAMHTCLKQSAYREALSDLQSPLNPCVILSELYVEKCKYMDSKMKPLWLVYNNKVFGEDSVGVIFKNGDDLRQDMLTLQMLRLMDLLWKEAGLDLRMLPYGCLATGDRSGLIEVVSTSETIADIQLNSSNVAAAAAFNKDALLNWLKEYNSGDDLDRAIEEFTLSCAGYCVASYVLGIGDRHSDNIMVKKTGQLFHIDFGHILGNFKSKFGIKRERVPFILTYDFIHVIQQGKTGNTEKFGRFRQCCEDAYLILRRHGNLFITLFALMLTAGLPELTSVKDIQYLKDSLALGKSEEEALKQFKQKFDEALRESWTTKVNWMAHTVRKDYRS
Phosphatidylinositol 4,5-bisphosphate 3-kinase catalytic subunit alpha isoform, sequence (P42336 whole entry, canonical isoform): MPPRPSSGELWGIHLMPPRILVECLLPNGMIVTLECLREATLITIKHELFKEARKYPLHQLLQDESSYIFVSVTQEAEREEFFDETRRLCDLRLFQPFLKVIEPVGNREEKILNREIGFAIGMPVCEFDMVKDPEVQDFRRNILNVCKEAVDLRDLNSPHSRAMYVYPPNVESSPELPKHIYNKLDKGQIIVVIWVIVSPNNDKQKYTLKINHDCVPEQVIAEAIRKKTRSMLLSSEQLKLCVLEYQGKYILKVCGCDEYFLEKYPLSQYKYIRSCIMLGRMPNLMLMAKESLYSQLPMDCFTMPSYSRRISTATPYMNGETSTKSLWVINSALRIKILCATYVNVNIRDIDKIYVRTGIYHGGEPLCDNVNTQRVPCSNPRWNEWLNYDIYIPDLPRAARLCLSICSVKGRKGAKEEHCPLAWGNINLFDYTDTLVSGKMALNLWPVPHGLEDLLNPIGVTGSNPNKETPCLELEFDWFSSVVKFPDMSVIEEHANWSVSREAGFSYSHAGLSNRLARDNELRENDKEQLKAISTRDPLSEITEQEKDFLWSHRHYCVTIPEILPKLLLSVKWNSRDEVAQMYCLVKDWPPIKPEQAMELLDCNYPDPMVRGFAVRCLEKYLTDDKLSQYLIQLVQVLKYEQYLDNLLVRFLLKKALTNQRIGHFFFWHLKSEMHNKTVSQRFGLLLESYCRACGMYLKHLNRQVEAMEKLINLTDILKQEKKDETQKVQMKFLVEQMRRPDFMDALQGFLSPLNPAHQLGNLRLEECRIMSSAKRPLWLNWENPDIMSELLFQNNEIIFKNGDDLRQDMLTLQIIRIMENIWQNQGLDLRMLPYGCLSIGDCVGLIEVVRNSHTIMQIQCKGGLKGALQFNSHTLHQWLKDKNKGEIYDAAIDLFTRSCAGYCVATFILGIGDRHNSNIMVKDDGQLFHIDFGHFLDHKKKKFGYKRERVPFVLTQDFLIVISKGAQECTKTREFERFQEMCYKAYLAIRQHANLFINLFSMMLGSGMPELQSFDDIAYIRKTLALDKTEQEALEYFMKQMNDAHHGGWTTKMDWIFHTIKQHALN
Phosphatidylinositol 4,5-bisphosphate 3-kinase catalytic subunit gamma isoform, sequence (P48736 whole entry, canonical isoform): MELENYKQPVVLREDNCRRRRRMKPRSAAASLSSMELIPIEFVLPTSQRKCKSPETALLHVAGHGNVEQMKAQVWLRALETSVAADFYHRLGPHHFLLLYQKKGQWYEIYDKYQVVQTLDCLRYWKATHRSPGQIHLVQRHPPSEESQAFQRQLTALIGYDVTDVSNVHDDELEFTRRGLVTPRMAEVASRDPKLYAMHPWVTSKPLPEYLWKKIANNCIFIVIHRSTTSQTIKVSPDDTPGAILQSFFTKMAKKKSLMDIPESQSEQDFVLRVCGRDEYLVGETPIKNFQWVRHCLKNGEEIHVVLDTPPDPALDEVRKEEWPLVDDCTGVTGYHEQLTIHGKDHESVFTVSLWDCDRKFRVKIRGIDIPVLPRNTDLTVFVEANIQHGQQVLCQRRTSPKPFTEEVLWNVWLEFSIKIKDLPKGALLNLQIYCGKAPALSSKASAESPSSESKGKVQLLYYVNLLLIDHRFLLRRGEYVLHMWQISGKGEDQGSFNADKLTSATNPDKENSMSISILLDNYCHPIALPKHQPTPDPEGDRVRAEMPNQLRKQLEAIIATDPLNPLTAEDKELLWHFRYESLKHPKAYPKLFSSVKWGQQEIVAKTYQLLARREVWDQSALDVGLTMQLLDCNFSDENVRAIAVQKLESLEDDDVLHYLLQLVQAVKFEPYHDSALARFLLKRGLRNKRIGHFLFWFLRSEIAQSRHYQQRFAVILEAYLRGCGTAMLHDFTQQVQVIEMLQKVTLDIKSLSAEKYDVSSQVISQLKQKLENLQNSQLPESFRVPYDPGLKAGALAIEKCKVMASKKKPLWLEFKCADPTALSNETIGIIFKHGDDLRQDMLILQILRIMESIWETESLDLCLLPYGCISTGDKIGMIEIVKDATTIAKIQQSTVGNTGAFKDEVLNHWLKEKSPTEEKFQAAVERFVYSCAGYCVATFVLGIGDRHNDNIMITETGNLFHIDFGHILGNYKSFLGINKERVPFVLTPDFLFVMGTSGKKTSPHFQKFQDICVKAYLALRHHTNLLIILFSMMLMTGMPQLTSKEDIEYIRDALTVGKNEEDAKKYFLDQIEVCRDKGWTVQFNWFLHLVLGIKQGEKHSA

SMILES | microsomal CLint [1] [µL/min/mg] | Ki [2] [nM] | Ki [3] [nM] | Ki [4] [nM] | Ki [5] [nM] | IC50 [6] [nM]
COc1ccc(Nc2ncc(CN3CCN(S(=O)(=O)N(C)C)CC3)cc2-c2nc(C)nc(N)n2)cn1 | 73 | 6 | 9 | 7 |  | 
COc1ccc(Nc2ncc(CO)cc2-c2nc(C)nc(N)n2)cn1 | 43 | 20 | 24 | 56 |  | 
COc1ccc(Nc2ncc(CN3CCCC3)cc2-c2nc(C)nc(N)n2)cn1 | 37 | 60 | 210 | 65 |  | 
COc1ccc(Nc2ncc(CN3CCC3)cc2-c2nc(C)nc(N)n2)cn1 | 37 | 50 | 140 | 22 |  | 
COc1ccc(Nc2cnccc2-c2nc(C)nc(N)n2)cn1 | 133 | 240 | 690 | 320 | 620 | 
COc1ccc(Nc2ncc(C3=CCOCC3)cc2-c2nc(C)nc(N)n2)cn1 | 83 | 2 | 2 | 3 |  | 
COc1ccc(Nc2ncc(-c3cnn(C)c3)cc2-c2nc(C)nc(N)n2)cn1 | 24 | 6 | 6 | 6 |  | 
COc1ccc(Nc2ncc(Cl)cc2-c2nc(C)nc(N)n2)cn1 | 58 | 39 | 40 | 38 | 290 | 
COc1ccc(Nc2ncc(C)cc2-c2nc(C)nc(N)n2)cn1 | 243 | 110 | 54 | 86 |  | > 10000
COc1ccc(Nc2ncc(-c3ccc(C)nc3)cc2-c2nc(C)nc(N)n2)cn1 | 25 | 7 |  | 89 |  | 
COc1ccc(Nc2ncc(CN3CCC(O)CC3)cc2-c2nc(C)nc(N)n2)cn1 | 23 | 63 | 110 | 41 |  | 
COc1ccc(Nc2ncc(CN3CCOCC3)cc2-c2nc(C)nc(N)n2)cn1 | 31 | 18 | 17 | 7 |  | 
Cc1nc(-c2cccnc2Nc2cccc3[nH]ccc23)c2[nH]cnc2n1 | 90 | 360 | 23 | 130 |  | 560
COc1ccc(Nc2ncc(Cc3ccccc3)cc2-c2nc(C)nc(N)n2)cn1 | 62 | 15 | 11 | 48 | 59 | 
COc1ccc(Nc2ncc(CN3CC[C@@H](CO)C3)cc2-c2nc(C)nc(N)n2)cn1 | 20 | 51 | 100 | 59 |  | 
COc1ccc(Nc2ncc(Br)cc2-c2nc(C)nc(N)n2)cn1 | 111 | 92 | 22 | 75 |  | 
COc1ccc(Nc2ncccc2-c2ncnc3nc[nH]c23)cn1 | 109 | 5700 | 1100 | > 10000 | 8300 | 
COc1cnc(Nc2ccc(OC)nc2)c(-c2nc(C)nc(N)n2)c1 | 86 | 7 | 9 | 15 |  | 
COc1ccc(Nc2ncc(CN3CCNCC3)cc2-c2nc(C)nc(N)n2)cn1 | 35 | 27 | 200 | 17 |  | 
COc1ccc(Nc2ncc(CN3CCN(C)CC3)cc2-c2nc(C)nc(N)n2)cn1 | 48 | 34 | 130 | 44 |  | 
COc1ccc(Nc2ncc(CN3CCC(S(C)(=O)=O)C3)cc2-c2nc(C)nc(N)n2)cn1 (racemic) | 23 | 3 | 5 | 5 |  | 
COc1ccc(Nc2ncc(CN3CCCCC3)cc2-c2nc(C)nc(N)n2)cn1 | 51 | 19 | 80 | 11 |  | 
COCCNCc1cnc(Nc2ccc(OC)nc2)c(-c2nc(C)nc(N)n2)c1 | 31 | 30 | 99 | 67 |  | 
